Assay results from ChEMBL document CHEMBL4673353, “Switching a Xanthine Oxidase Inhibitor to a Dual-Target Antagonist of P2Y and P2Y as an Oral Antiplatelet Agent with a Wider Therapeutic Window in Rats than Ticagrelor” (J Med Chem, 2020).

system: Plasma; assay: Antiplatelet activity in rabbit platelet-rich plasma assessed as inhibition of ADP-induced platelet aggregation preincubated for 5 mins followed by ADP addition measured every 1 min for up to 6 mins by microplate reader analysis; type: functional, cell-free; conditions: Oryctolagus cuniculus

Going from `CCOC(=O)c1c(C)nc(-c2cccc(C#N)c2)n1OCCCO` to `CCOC(=O)c1c(C)nc(-c2cccc(C#N)c2)n1OCCC(=O)O`, the IC50 rises from 11.4 µM to > 30 µM. The first is the more potent here.

Going from `CCOC(=O)c1c(C)nc(-c2cccc(C#N)c2)n1OCc1ccc(Cl)cc1` to `CCOC(=O)c1c(C)nc(-c2cccc(C#N)c2)n1OCc1ccc(Br)cc1`, the IC50 rises from 6.83 µM to 24.6 µM (3.6-fold). The first is the more potent here.

`CCOC(=O)c1c(C)nc(-c2cccc(C#N)c2)n1OCc1ccncc1` and `CCOC(=O)c1c(C)nc(-c2cccc(C#N)c2)n1OCc1ccccc1` are within 1.5-fold of each other in IC50: 6.2 µM for the first, 5.93 µM for the second.

First: CCOC(=O)c1[nH]c(-c2cccc(C#N)c2)nc1C
Second: CCOC(=O)c1c(C)nc(-c2cccc(C#N)c2)n1C
The IC50 of the first is higher: > 30 µM for the first, 22.1 µM for the second. The second is the more potent here.

`CCOC(=O)c1c(C)nc(-c2cccc(C#N)c2)n1OCc1ccc([N+](=O)[O-])cc1` and `CCOC(=O)c1c(C)nc(-c2cccc(C#N)c2)n1OCc1ccc(C)cc1` are within 1.5-fold of each other in IC50: 8.75 µM for the first, 6.31 µM for the second.

Compared with `CCOC(=O)c1c(C)nc(-c2ccccc2)n1OC`, `CCOC(=O)c1c(C)nc(-c2cccc(C#N)c2)n1OC` is lower in IC50: > 30 µM for the first, 9.13 µM for the second.

`CCOC(=O)c1c(C)nc(-c2ccc(C#N)cc2)n1OC` and `CCOC(=O)c1c(C)nc(-c2ccccc2C#N)n1OC` are within 1.5-fold of each other in IC50: 13.4 µM for the first, 14.9 µM for the second.

`CCOC(=O)c1c(C)nc(-c2cccc(C#N)c2)n1OCc1ccccc1C#N` and `CCOC(=O)c1c(C)nc(-c2cccc(C#N)c2)n1OCc1ccccc1F` are within 1.5-fold of each other in IC50: 9.38 µM for the first, 8.99 µM for the second.

`CCOC(=O)c1c(C)nc(-c2ccc(OCC(C)C)c(C#N)c2)n1O` and `Cc1nc(-c2ccc(OCC(C)C)c(C#N)c2)n(O)c1C(=O)O` are within 1.5-fold of each other in IC50: 16.8 µM for the first, 15.7 µM for the second.

`C=CCOn1c(-c2cccc(C#N)c2)nc(C)c1C(=O)OCC` and `C=CCOn1c(-c2cccc(C#N)c2)nc(C)c1C(=O)O` are within 1.5-fold of each other in IC50: 5.86 µM for the first, 6.35 µM for the second.

`CCOC(=O)c1c(C)nc(-c2cccc(C#N)c2)n1OC(C)C` and `CCOC(=O)c1c(C)nc(-c2cccc(C#N)c2)n1C(C)C` are within 1.5-fold of each other in IC50: 6.74 µM for the first, 9.26 µM for the second.

`CCOCCOn1c(-c2cccc(C#N)c2)nc(C)c1C(=O)OCC` and `CCOC(=O)COn1c(-c2cccc(C#N)c2)nc(C)c1C(=O)OCC` are within 1.5-fold of each other in IC50: 6.25 µM for the first, 6.8 µM for the second.

`Cc1ccc(COn2c(-c3cccc(C#N)c3)nc(C)c2C(=O)O)cc1` and `Cc1nc(-c2cccc(C#N)c2)n(OCc2ccccc2)c1C(=O)O` are within 1.5-fold of each other in IC50: 6.56 µM for the first, 6.24 µM for the second.

`CCOC(=O)c1c(C)nc(-c2cccc(C#N)c2)n1OCc1ccc(OC)cc1` and `CCOC(=O)c1c(C)nc(-c2cccc(C#N)c2)n1OCc1ccc(F)cc1` are within 1.5-fold of each other in IC50: 6.83 µM for the first, 5.88 µM for the second.

`CCOC(=O)c1c(C)nc(-c2cccc(C#N)c2)n1OCc1cccc(Cl)c1` and `CCOC(=O)c1c(C)nc(-c2cccc(C#N)c2)n1OCc1cccc(F)c1` are within 1.5-fold of each other in IC50: 19.4 µM for the first, 22.4 µM for the second.

Going from `CCOC(=O)c1c(C)nc(-c2cccc(C#N)c2)n1OCC(N)=O` to `CCOC(=O)c1c(C)nc(-c2cccc(C#N)c2)n1O`, the IC50 falls from > 30 µM to 17.6 µM.

`COn1c(-c2cccc(C#N)c2)nc(C)c1C(=O)O` and `CCOC(=O)c1c(C)nc(-c2cccc(C#N)c2)n1OCc1ccccc1Cl` are within 1.5-fold of each other in IC50: 7.99 µM for the first, 8.71 µM for the second.

Going from `CCOC(=O)c1c(C)nc(-c2cccc(C#N)c2)n1OCc1cccc(C#N)c1` to `CCOC(=O)c1c(C)nc(-c2cccc(C#N)c2)n1OCc1ccc(C(=O)OC)cc1`, the IC50 falls from > 30 µM to 9.47 µM. The second is the more potent here.

`CC(C)(C)c1ccccc1Oc1ncccc1NC(=O)Nc1ccc(OC(F)(F)F)cc1` and `CCCSc1nc(N[C@@H]2C[C@H]2c2ccc(F)c(F)c2)c2nnn([C@@H]3C[C@H](OCCO)[C@@H](O)[C@H]3O)c2n1` [TICAGRELOR] are within 1.5-fold of each other in IC50: 5.54 µM for the first, 7.21 µM for the second.

system: not listed separately; assay: Antagonist activity at P2Y1 in rabbit platelet-rich plasma assessed as inhibition of ADP-induced increase in intracellular Ca2+ concentration preincubated for 5 mins followed by ADP addition and measured for 3 mins by fluo4 dye-based fluorescence assay; type: cell-free; conditions: Oryctolagus cuniculus

Work on `CC(C)(C)c1ccccc1Oc1ncccc1NC(=O)Nc1ccc(OC(F)(F)F)cc1` yielded an IC50 of 3.03 µM.

molecular target: P2Y purinoceptor 12 (Homo sapiens, UniProt Q9H244); assay: Antagonist activity at P2Y12 in human whole blood assessed as suppression of ADP-induced decrease in PGE1-induced VASP phosphorylation measured after 10 mins by immunostaining based flow cytometric analysis; type: tissue-based; conditions: not given
Sequence (Q9H244 whole entry): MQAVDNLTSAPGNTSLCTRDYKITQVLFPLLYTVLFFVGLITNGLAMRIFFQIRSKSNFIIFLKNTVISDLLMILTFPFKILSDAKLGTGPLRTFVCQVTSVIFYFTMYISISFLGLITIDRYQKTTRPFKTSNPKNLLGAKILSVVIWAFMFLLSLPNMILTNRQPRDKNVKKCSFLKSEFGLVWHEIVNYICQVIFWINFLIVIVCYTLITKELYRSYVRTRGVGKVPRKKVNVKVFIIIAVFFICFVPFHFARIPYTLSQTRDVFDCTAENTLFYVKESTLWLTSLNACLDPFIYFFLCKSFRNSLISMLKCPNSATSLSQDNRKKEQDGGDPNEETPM

First: CNc1nc(Cl)nc2c1ncn2CC(COC(=O)C(C)(C)C)COC(=O)C(C)(C)C
Second: CCCSc1nc(N[C@@H]2C[C@H]2c2ccc(F)c(F)c2)c2nnn([C@@H]3C[C@H](OCCO)[C@@H](O)[C@H]3O)c2n1 [TICAGRELOR]
The IC50 of the first is 34-fold higher: 176 µM for the first, 5.14 µM for the second.

molecular target: Xanthine dehydrogenase/oxidase (Bos taurus, UniProt P80457); assay: Inhibition of bovine xanthine oxidase assessed as reduction in uric acid formation at 10 uM using xanthine as substrate preincubated for 15 mins followed by substrate addition measured at 30 sec interval for upto 2 mins by spectrophotometric analysis relative to control; conditions: cattle, time 17 min
Sequence (P80457 whole entry): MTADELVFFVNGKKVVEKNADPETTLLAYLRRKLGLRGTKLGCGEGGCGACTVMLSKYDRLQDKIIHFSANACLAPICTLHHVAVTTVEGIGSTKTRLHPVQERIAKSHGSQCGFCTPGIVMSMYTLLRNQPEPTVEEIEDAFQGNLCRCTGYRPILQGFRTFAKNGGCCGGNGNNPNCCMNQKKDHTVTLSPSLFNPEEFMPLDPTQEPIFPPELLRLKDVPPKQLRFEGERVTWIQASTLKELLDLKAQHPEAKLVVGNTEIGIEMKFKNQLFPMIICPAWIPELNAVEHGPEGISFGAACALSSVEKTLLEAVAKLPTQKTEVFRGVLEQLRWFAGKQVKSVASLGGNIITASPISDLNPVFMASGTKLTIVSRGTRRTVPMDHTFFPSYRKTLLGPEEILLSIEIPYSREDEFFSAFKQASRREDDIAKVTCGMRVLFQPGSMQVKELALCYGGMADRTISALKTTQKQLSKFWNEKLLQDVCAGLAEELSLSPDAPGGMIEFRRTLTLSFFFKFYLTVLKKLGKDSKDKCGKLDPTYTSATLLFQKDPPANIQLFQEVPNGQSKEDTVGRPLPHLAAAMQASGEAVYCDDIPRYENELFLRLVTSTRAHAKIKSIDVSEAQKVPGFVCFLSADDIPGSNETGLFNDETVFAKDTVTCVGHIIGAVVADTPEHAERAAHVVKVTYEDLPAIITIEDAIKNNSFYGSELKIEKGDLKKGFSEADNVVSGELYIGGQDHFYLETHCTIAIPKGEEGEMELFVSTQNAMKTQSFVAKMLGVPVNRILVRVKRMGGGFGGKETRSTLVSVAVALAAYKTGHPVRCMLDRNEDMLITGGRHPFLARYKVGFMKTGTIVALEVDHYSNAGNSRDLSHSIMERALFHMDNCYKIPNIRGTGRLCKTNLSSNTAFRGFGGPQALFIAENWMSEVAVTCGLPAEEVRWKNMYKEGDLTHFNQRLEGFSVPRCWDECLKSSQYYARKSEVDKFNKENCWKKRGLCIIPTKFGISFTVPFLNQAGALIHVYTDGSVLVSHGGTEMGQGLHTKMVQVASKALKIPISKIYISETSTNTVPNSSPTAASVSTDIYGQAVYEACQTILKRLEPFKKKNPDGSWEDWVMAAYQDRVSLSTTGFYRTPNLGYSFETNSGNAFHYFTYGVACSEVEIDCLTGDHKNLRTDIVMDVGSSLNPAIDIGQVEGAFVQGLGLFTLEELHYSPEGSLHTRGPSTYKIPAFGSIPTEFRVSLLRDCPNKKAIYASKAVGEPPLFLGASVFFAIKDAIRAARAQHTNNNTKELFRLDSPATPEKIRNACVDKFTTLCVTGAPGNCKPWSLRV

With `CCCSc1nc(N[C@@H]2C[C@H]2c2ccc(F)c(F)c2)c2nnn([C@@H]3C[C@H](OCCO)[C@@H](O)[C@H]3O)c2n1` [TICAGRELOR] the inhibition at 10 µM was < 50%.

system: Rattus norvegicus; assay: Antithrombotic activity in FeCl3-induced Sprague-Dawley rat model of arterial thrombosis assessed as reduction in thrombus weight at 10 mg/kg, po qd administered as single dose for 7 days and measured 2 hrs post last dose; type: functional; parameters: scale not given: the % may be the effect or the level left; conditions: time 7 day

With `CCCSc1nc(N[C@@H]2C[C@H]2c2ccc(F)c(F)c2)c2nnn([C@@H]3C[C@H](OCCO)[C@@H](O)[C@H]3O)c2n1` [TICAGRELOR] the Activity was 39.2%.

system: not listed separately; assay: Toxicity in Sprague-Dawley rat model of tail-snip bleeding assessed as bleeding time at 10 mg/kg, po administered via gavage as single dose measured within 2 hrs post tail snip (reference value: 17.69 min); type: organism-based; conditions: in vivo

With `CCCSc1nc(N[C@@H]2C[C@H]2c2ccc(F)c(F)c2)c2nnn([C@@H]3C[C@H](OCCO)[C@@H](O)[C@H]3O)c2n1` [TICAGRELOR] the Time was 120 min.

system: not listed separately; assay: Toxicity in Sprague-Dawley rat model of tail snip bleeding assessed as bleeding weight at 10 mg/kg, po administered via gavage as single dose measured within 2 hrs post tail snip(reference value: 0.08 g); type: organism-based; conditions: in vivo

With `CCCSc1nc(N[C@@H]2C[C@H]2c2ccc(F)c(F)c2)c2nnn([C@@H]3C[C@H](OCCO)[C@@H](O)[C@H]3O)c2n1` [TICAGRELOR] the Activity was 3.89 g.
